The test system of the test is P388. Kind of test: Cytotoxicity against mouse P388 cells by MTT method. It is filed as functional. The conditions noted are these: read-out: ED50 (the source's name).

In brackets after ≈: the same amount, converted by molar mass.

Turning to `CC(=O)O[C@@H]1[C@@H](OC(C)=O)C2=C(C)C(=O)O[C@]2(O)C[C@@]2(C)O[C@@H]2CC[C@H](C)[C@H]2CC[C@]1(C)O2` [PACHYCLAVULARIOLIDE M], the EC50 turned out to be 3.2 µg/mL (≈ 6.86 µM).

Source of the values: ChEMBL document CHEMBL1150043, “Pachyclavulariolides M-R, six novel diterpenoids from a Taiwanese soft coral Pachyclavularia violacea” (2003).
